Columns and labels:
[1] = molecular target: T1, Bcl-2 protein (Recombinant Human Bcl-2 Protein) (Homo sapiens, UniProt P10415); test: AS-MS evaluation of binding of the mixture libraries of Examples 8 and 9 to Bcl-2, ASMS ratio (%), Example 11; conditions: for AS-MS(%) N1 / AS-MS(%) N2 / AS-MS(%) N3 / AS-MS(%) N4: ASMS ratio, mixtures obtained from Example 9, 10 uM Bcl-2 protein; for AS-MS(%) N1: replicate N1; for AS-MS(%) N2: replicate N2; for AS-MS(%) N3: replicate N3 (additional day); for AS-MS(%) N4: replicate N4 (additional day); for binding to Bcl-2 detected by AS-MS: positive controls added to the mixtures of Examples 8 and 9, final compound concentration 100 nM
T1 construct: purchased Novus Biologicals NBP2-34889
Experimental: DMSO solutions (prepared into approximately 5 mM based on calculation from the average molecular weight of each mixture) of the mixtures of each Example shown in Table 11-1-1 were respectively dispensed to 8 wells of MICROPLATE, 96-WELL, PP, V-BOTTOM (Greiner Bio-One International GmbH, 651201). 400 nL each from the 8 wells of the mixtures obtained from Example 8 was dispensed into 3 designated wells while 200 nL each from the 8 wells of the mixtures obtained from Example 9 was dispensed into 3 designated wells, using LABCYTE ECHO® 555 acoustic dispensing system (Beckman Coulter, Inc.). 200 nL each of two types of 10 μM positive controls (B2Q045-01 and B2Q048-01) was dispensed to the mixtures obtained from Example 8. Likewise, 100 nL each of two types of 20 μM positive controls and 400 nL of a DMSO solution by backfill was dispensed to the mixtures obtained from Example 9. Further, Bcl-2 protein (Novus Biologicals, NBP2-34889, Recombinant Human Bcl-2 Protein, Lot E60145051) (19.2 μL) prepared at 5 µM (final protein concentration) for the mixtures obtained from Example 8 and 10 µM (final protein concentration) for the mixtures obtained from Example 9, in advance using a Tris-HCl buffer (25 mM Tris-HCl, pH 7.4, 150 mM NaCl, 0.025% Tween-20, and 1 mM DTT) was added to the well containing the dispensed 1000 compounds or 500 compounds (final compound concentration: 100 nM), and the plate was incubated at 23° C. for 1 hour in the dark. Subsequently, 200 μL of an assay buffer (25 mM Tris-HCl, pH 7.4, 150 mM NaCl, 0.025% Tween-20, and 1 mM DTT) was centrifuged three times at 2000×G at 4° C. for 2 minutes using 96-well MacroSpin column, P-2 Material (Harvard Bioscience, Inc., 74-5655) that had been allowed to swell to condition the 96-well MacroSpin column. Subsequently, 20 μL of the sample thus incubated was added to the 96-well MacroSpin column, P-2 Material after the completion of conditioning, and SEC treatment was performed by centrifugation at 2000×G for 2 minutes. 32 μL of a 1:1 mixed solution of acetonitrile and methanol (LC/MS grade, FUJIFILM Wako Pure Chemical Corp.) was added to a flow-through liquid from SEC, and the mixture was centrifuged at 1800×G at 4° C. for 5 minutes. The supernatant was used as analysis sample ASMS (A). By a similar operation, a sample prepared at 500 compounds/well or 1000 compounds/well and supplemented with only a Tris-HCl buffer containing no Bcl-2 protein was incubated under the same conditions as above, and the same organic solvent as above was added thereto without 96-well MacroSpin column treatment. A supernatant obtained by a centrifugation operation was used as STD (B). Next, by a similar operation, a sample prepared at 1000 compounds/well or 500 compounds/well and supplemented with only a Tris-HCl buffer containing no Bcl-2 protein was incubated under the same conditions as above and treated with 96-well MacroSpin column in the same manner as above, and the same organic solvent as above was added thereto. A supernatant obtained by a centrifugation operation was used as BK (C). These samples were measured by reverse-phase LC/MS.
Then, the samples A, B and C were analyzed for the 1000 compounds or 500 compounds using TraceFinder 5.1 (Thermo Fisher Scientific Inc.) and CHANCE Software (in-house), and an ASMS ratio (%) was calculated according to the following expression.
The mixtures obtained from Example 8 were tested at the number of data of 2 (N1 and N2) in order to ensure reproducibility. The mixtures obtained from Example 9 were tested at the total number of data 4 (N1,N2, N3, and N4) involving the number of data of 2/day (N1 and N2) and data obtained on additional days.

Human Bcl-2 protein = molecular target: T2, Human Bcl-2 protein (Homo sapiens, UniProt P10415); test: Evaluation of binding of compound to Bcl-2 by surface plasmon resonance (SPR)-2, Example 13; conditions: for Kd: Biacore T200, biotinylated Bcl-2 immobilized on Sensor Chip SA, 15° C., read-out: Equilibrium dissociation constant KD; for equilibrium dissociation constant KD compared with B2Q045-01 (KD=1.20 μM) or B2Q048-01 (KD=0.480 μM): Biacore T200, 15° C.
T2 construct: purchased Novus Biologicals
Experimental: A surface plasmon resonance method was used in order to analyze the binding affinity of the compounds synthesized in Example 12 for Bcl-2, which are shown in Table 13-1. The apparatus used was Biacore T200 (GE Healthcare Japan Corp.), and the running buffer used was HBS (10 mM HEPES-NaOH and 150 mM NaCl, pH 7.4) supplemented with 1 mM DTT, 3 mM EDTA, 0.01% Tween 20 and 4% DMSO. Human Bcl-2 protein (Novus Biologicals) was biotinylated using EZ-Link NHS-PEG4-Biotin (Thermo Fisher scientific Inc.) and immobilized on the surface of Sensor Chip SA (Cytiva). Then, compound solutions having a plurality of concentrations and the running buffer (blank) were added to the Bcl-2-immobilized surface to obtain the binding response of the compounds. Measurement was performed at 15° C.
The obtained sensorgrams were treated with Biacore T200 Evaluation Software, and the equilibrium dissociation constant KD of each compound for Bcl-2 was determined as shown in the following Table 13-2.

T1 sequence (P10415 whole entry): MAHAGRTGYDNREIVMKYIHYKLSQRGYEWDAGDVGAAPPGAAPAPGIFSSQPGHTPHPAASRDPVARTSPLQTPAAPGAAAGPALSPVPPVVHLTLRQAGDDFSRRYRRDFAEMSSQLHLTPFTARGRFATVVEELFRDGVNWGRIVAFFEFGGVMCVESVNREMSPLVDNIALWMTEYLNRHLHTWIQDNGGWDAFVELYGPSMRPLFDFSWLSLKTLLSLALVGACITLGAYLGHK
T2 sequence (P10415 whole entry): as above

| SMILES | AS-MS(%) N1 [1] [%] | AS-MS(%) N2 [1] [%] | AS-MS(%) N3 [1] [%] | AS-MS(%) N4 [1] [%] | Kd (Human Bcl-2 protein) [µM] | equilibrium dissociation constant KD compared with B2Q045-01 (KD=1.20 μM) or B2Q048-01 (KD=0.480 μM) (Human Bcl-2 protein) | binding to Bcl-2 detected by AS-MS [1] |
| --- | --- | --- | --- | --- | --- | --- | --- |
| CC(C(=O)Nc1ccccc1)c1cc(O)cc(N2CCN(c3ccc(C(=O)NS(=O)(=O)c4ccc(NCCSc5ccccc5)c([N+](=O)[O-])c4)cc3)CC2)c1 (centres unmarked) [2-2-d1E03-1-0417] | 34.2 | 33.3 | 44.4 | 38.0 | 7.91 | – | – |
| CC(C(=O)Nc1ccc(F)cc1)c1cc(O)cc(N2CCN(c3ccc(C(=O)NS(=O)(=O)c4ccc(NCCSc5ccccc5)c([N+](=O)[O-])c4)cc3)CC2)c1 (centres unmarked) [2-2-d1E03-1-0454] | 34.7 | 33.4 | 39.2 | 38.2 | 15.2 | – | – |
| CC(C(=O)Nc1nc2ccccc2s1)c1cc(O)cc(N2CCN(c3ccc(C(=O)NS(=O)(=O)c4ccc(NCCSc5ccccc5)c([N+](=O)[O-])c4)cc3)CC2)c1 (centres unmarked) [2-2-d1E03-1-0495] | 28.9 | 38.1 | 35.6 | 39.3 | 5.34 | – | – |
| CC(C(=O)Nc1ccccc1)c1cc(O)cc(N2CCN(c3ccc(C(=O)NS(=O)(=O)c4ccc(N[C@H](CCN5CCOCC5)CSc5ccccc5)c([N+](=O)[O-])c4)cc3)CC2)c1 (some centres unmarked) [2-2-d1E04-1-0417] | 70.3 | 77.8 | 72.8 | 71.8 | 0.582 | smaller equilibrium dissociation constant KD | – |
| Cc1ccc(NC(=O)C(C)c2cc(O)cc(N3CCN(c4ccc(C(=O)NS(=O)(=O)c5ccc(N[C@H](CCN6CCOCC6)CSc6ccccc6)c([N+](=O)[O-])c5)cc4)CC3)c2)cc1 (some centres unmarked) [2-2-d1E04-1-0446] | 57.8 | 68.3 | 60.9 | 58.1 | 0.775 | smaller equilibrium dissociation constant KD | – |
| CC(C(=O)Nc1ccc(F)cc1)c1cc(O)cc(N2CCN(c3ccc(C(=O)NS(=O)(=O)c4ccc(N[C@H](CCN5CCOCC5)CSc5ccccc5)c([N+](=O)[O-])c4)cc3)CC2)c1 (some centres unmarked) [2-2-d1E04-1-0454] | 72.6 | 87.8 | 78.5 | 74.6 | 0.788 | smaller equilibrium dissociation constant KD | – |
| CCOc1cccc(-c2ccccc2CN2CCN(c3ccc(C(=O)NS(=O)(=O)c4ccc(NCCSc5ccccc5)c([N+](=O)[O-])c4)cc3)CC2)c1 [Compound B2Q045-01, 4-[4-[[2-(3-ethoxyphenyl)phenyl]methyl]piperazin-1-yl]-N-[3-nitro-4-(2-phenylsulfanylethylamino)phenyl]sulfonylbenzamide] | – | – | – | – | – | – | binding to Bcl-2 was detected |
| CCOc1cncc(-c2ccccc2CN2CCN(c3ccc(C(=O)NS(=O)(=O)c4ccc(NCCSc5ccccc5)c([N+](=O)[O-])c4)cc3)CC2)c1 [Compound B2Q046-01, 4-[4-[[2-(5-ethoxypyridin-3-yl)phenyl]methyl]piperazin-1-yl]-N-[3-nitro-4-(2-phenylsulfanylethylamino)phenyl]sulfonylbenzamide] | – | – | – | – | – | – | binding to Bcl-2 was detected |

Reference: US20250154686A1, “COMPOUND LIBRARY” (CHUGAI SEIYAKU KABUSHIKI KAISHA, priority 2021, published 2025)
